How the values were obtained:
Gal4-RORγ-LBD = molecular target: T1, Gal4-RORγ-LBD (Homo sapiens, UniProt P51449); assay: Gal4-RORγ Luciferase Reporter Assay in HEK-293T Cells; format: cell-based; conditions: HEK-293 cells
T1 construct: expressed in transfected cells; host or cells: HEK-293 cells (pcDNA3.1neo plasmid)
T1 sequence (P51449 269-508 limits assumed): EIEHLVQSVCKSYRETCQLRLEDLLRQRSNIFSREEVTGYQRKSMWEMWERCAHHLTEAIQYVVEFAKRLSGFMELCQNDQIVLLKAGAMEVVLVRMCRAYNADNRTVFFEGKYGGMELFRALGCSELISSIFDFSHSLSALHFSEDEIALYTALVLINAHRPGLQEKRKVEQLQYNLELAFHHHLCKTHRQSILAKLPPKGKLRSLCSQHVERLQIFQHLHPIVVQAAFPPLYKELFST
How it was run: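 Luminescence read-out (One-Glo, 10 min RT) after overnight compound exposure at 37 °C in HEK-293 cells carrying Gal4-RORγ-LBD plus a Gal4-luciferase reporter, in the presence of 2 μM ursolic acid. Max Response is the upper plateau from a 4-parameter logistic fit, normalized to untreated signal = 100.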

RORγ-LBD = molecular target: T2, RORγ-LBD (Homo sapiens, UniProt P51449); assay: RORγ-Ligand Binding Domain (LBD) TR-FRET Assay; format: biochemical;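 for TR-FRET Assay Max Response: 665/615 nm ratio relative to signal without ursolic acid or compound set at 100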
T2 construct: made in house; host or cells: SF9 cells (baculovirus)
T2 sequence (P51449 269-508 limits assumed): T1 sequence (P51449 269-508 limits assumed)
How it was run: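 This TR-FRET coactivator assay pairs baculovirus-expressed His-RORγ-LBD (~3 nM final) with biotin-SRC1 LXXLL peptide at 200 nM final in pH 7.0 Tris/KCl/EDTA/DTT/BSA buffer.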

[1] = luciferase reporter, with 2 μM ursolic acid

EC50 (Gal4-RORγ-LBD; [1])	EC50 (RORγ-LBD)	EC50 (Gal4-RORγ-LBD; 2 μM ursolic acid)	Structure (SMILES)	Gal4-RORγ Assay Max Response (Gal4-RORγ-LBD; [1])	TR-FRET Assay Max Response (RORγ-LBD)	Gal4-RORγ Assay Max Response (Gal4-RORγ-LBD; 2 μM ursolic acid)
–	–	0.5 to 5 µM	CC(C)(O[C@@H]1Cc2ccc(-c3cc(F)cc(OC(F)F)c3)cc2N(S(=O)(=O)c2cccc(C(F)(F)F)c2)C1)C(=O)O [Compound 83D, (R)-2-((7-(3-(difluoromethoxy)-5-fluorophenyl)-1-((3-(trifluoromethyl)phenyl)sulfonyl)-1,2,3,4-tetrahydroquinolin-3-yl)oxy)-2-methylpropanoic acid]	–	–	** (The symbol “**” indicates a value in the range of greater than 90 to 150)
–	–	0.5 to 5 µM	O=C(O)CO[C@@H]1Cc2ccc(-c3cc(F)cc(OC(F)F)c3)cc2N(S(=O)(=O)c2cccc(C(F)(F)F)c2)C1 [Compound 83E, (R)-2-((7-(3-(difluoromethoxy)-5-fluorophenyl)-1-((3-(trifluoro-methyl)phenyl)sulfonyl)-1,2,3,4-tetrahydroquinolin-3-yl)oxy)acetic acid]	–	–	* (The symbol “*” indicates a value in the range of 25 to 90)
–	–	0.5 to 5 µM	CC(C)(O[C@H]1Cc2ccc(-c3cc(F)cc(OC(F)F)c3)cc2N(S(=O)(=O)c2cccc(C(F)(F)F)c2)C1)C(=O)O [Compound 83F, (S)-2-((7-(3-(difluoromethoxy)-5-fluorophenyl)-1-((3-(trifluoromethyl)phenyl)sulfonyl)-1,2,3,4-tetrahydroquinolin-3-yl)oxy)-2-methylpropanoic acid]	–	–	* (The symbol “*” indicates a value in the range of 25 to 90)
–	–	0.5 to 5 µM	O=C(O)[C@]1(C[C@H]2CN(S(=O)(=O)c3cccc(C(F)(F)F)c3)c3cc(-c4cc(F)ccc4F)ccc3O2)C[C@](O)(CO)C1 [Compound 89D, (1r,3R)-1-(((S)-6-(2,5-difluoro-phenyl)-4-((3-(trifluoromethyl)-phenyl)sulfonyl)-3,4-dihydro-2H-benzo[b][1,4]oxazin-2-yl)methyl)-3-hydroxy-3-(hydroxymethyl)-cyclobutane-1-carboxylic acid]	–	–	** (The symbol “**” indicates a value in the range of greater than 90 to 150)
–	–	0.5 to 5 µM	O=C(O)[C@]1(C[C@H]2CN(S(=O)(=O)c3cccc(C(F)(F)F)c3)c3cc(-c4cc(F)ccc4F)ccc3O2)C[C@@](O)(CO)C1 [Compound 89E, (1s,3S)-1-(((S)-6-(2,5-difluoro-phenyl)-4-((3-(trifluoromethyl)-phenyl)sulfonyl)-3,4-dihydro-2H-benzo[b][1,4]oxazin-2-yl)methyl)-3-hydroxy-3-(hydroxymethyl)-cyclobutane-1-carboxylic acid]	–	–	** (The symbol “**” indicates a value in the range of greater than 90 to 150)

More lines, now with the values behind:

Structure (SMILES)	EC50 (Gal4-RORγ-LBD; [1])	EC50 (RORγ-LBD)	EC50 (Gal4-RORγ-LBD; 2 μM ursolic acid)	Gal4-RORγ Assay Max Response (Gal4-RORγ-LBD; [1])	TR-FRET Assay Max Response (RORγ-LBD)	Gal4-RORγ Assay Max Response (Gal4-RORγ-LBD; 2 μM ursolic acid)
O=C(O)CC[C@H]1CN(S(=O)(=O)c2cccc(C(F)(F)F)c2)c2cc(-c3cccc(F)c3F)ccc2O1 [Compound 1, (S)-3-(6-(2,3-difluorophenyl)-4-((3-(trifluoromethyl)phenyl)sulfonyl)-3,4-dihydro-2H-benzo[b][1,4]oxazin-2-yl)propanoic acid]	< 0.5 µM	< 0.5 µM	–	*** (The symbol “***” indicates a value in the range of greater than 150 to 200)	*** (The symbol “***” indicates a value in the range of greater than 150 to 200)	–
O=C(O)CC[C@H]1CN(S(=O)(=O)c2cccc(C(F)(F)F)c2)c2cc(-c3ccccc3Cl)ccc2O1 [Compound 2A, (S)-3-(6-(2-chlorophenyl)-4-((3-(trifluoromethyl)phenyl)-sulfonyl)-3,4-dihydro-2H-benzo[b][1,4]oxazin-2-yl)propanoic acid]	< 0.5 µM	< 0.5 µM	–	** (The symbol “**” indicates a value in the range of greater than 90 to 150)	*** (The symbol “***” indicates a value in the range of greater than 150 to 200)	–
O=C(O)CC[C@H]1CN(S(=O)(=O)c2cccc(C(F)(F)F)c2)c2cc(-c3ccnc(C(F)(F)F)c3)ccc2O1 [Compound 2AA, (S)-3-(4-((3-(trifluoromethyl)-phenyl)sulfonyl)-6-(2-(trifluoromethyl)pyridin-4-yl)-3,4-dihydro-2H-benzo[b][1,4]oxazin-2-yl)propanoic acid]	> 10 µM	< 0.5 µM	–	–	**** (The symbol “****” indicates a value greater than 200)	–
O=C(O)CC[C@H]1CN(S(=O)(=O)c2cccc(C(F)(F)F)c2)c2cc(-c3ccc(Cl)cc3Cl)ccc2O1 [Compound 2AB, (S)-3-(6-(2,4-dichlorophenyl)-4-((3-(trifluoromethyl)phenyl)-sulfonyl)-3,4-dihydro-2H-benzo[b][1,4]oxazin-2-yl)propanoic acid]	> 10 µM	< 0.5 µM	–	** (The symbol “**” indicates a value in the range of greater than 90 to 150)	**** (The symbol “****” indicates a value greater than 200)	–
COc1c(Cl)cccc1-c1ccc2c(c1)N(S(=O)(=O)c1cccc(C(F)(F)F)c1)C[C@H](CCC(=O)O)O2 [Compound 2AC, (S)-3-(6-(3-chloro-2-methoxy-phenyl)-4-((3-(trifluoromethyl)-phenyl)sulfonyl)-3,4-dihydro-2H-benzo[b][1,4]oxazin-2-yl)propanoic acid]	< 0.5 µM	< 0.5 µM	–	*** (The symbol “***” indicates a value in the range of greater than 150 to 200)	**** (The symbol “****” indicates a value greater than 200)	–
O=C(O)CC[C@H]1CN(S(=O)(=O)c2cccc(C(F)(F)F)c2)c2cc(-c3cc(F)ccc3F)ccc2O1 [Compound 2AD, (S)-3-(6-(2,5-difluorophenyl)-4-((3-(trifluoromethyl)-phenyl)sulfonyl)-3,4-dihydro-2H-benzo[b][1,4]oxazin-2-yl)propanoic acid]	< 0.5 µM	< 0.5 µM	–	*** (The symbol “***” indicates a value in the range of greater than 150 to 200)	**** (The symbol “****” indicates a value greater than 200)	–
O=C(O)CC[C@H]1CN(S(=O)(=O)c2cccc(C(F)(F)F)c2)c2cc(-c3cc(F)cc(C(F)(F)F)c3)ccc2O1 [Compound 2AE, (S)-3-(6-(3-fluoro-5-(trifluoromethyl)phenyl)-4-((3-(trifluoromethyl)phenyl)-sulfonyl)-3,4-dihydro-2H-benzo[b][1,4]oxazin-2-yl)propanoic acid]	< 0.5 µM	< 0.5 µM	–	*** (The symbol “***” indicates a value in the range of greater than 150 to 200)	**** (The symbol “****” indicates a value greater than 200)	–
O=C(O)CC[C@H]1CN(S(=O)(=O)c2cccc(C(F)(F)F)c2)c2cc(-c3ccc(F)c(C(F)(F)F)c3)ccc2O1 [Compound 2AF, (S)-3-(6-(4-fluoro-3-(trifluoromethyl)phenyl)-4-((3-(trifluoromethyl)phenyl)-sulfonyl)-3,4-dihydro-2H-benzo[b][1,4]oxazin-2-yl)propanoic acid]	> 10 µM	< 0.5 µM	–	–	**** (The symbol “****” indicates a value greater than 200)	–
O=C(O)CC[C@H]1CN(S(=O)(=O)c2cccc(C(F)(F)F)c2)c2cc(-c3c(F)cccc3Cl)ccc2O1 [Compound 2AG, (S)-3-(6-(2-chloro-6-fluoro-phenyl)-4-((3-(trifluoromethyl)-phenyl)sulfonyl)-3,4-dihydro-2H-benzo[b][1,4]oxazin-2-yl)propanoic acid]	< 0.5 µM	< 0.5 µM	–	*** (The symbol “***” indicates a value in the range of greater than 150 to 200)	**** (The symbol “****” indicates a value greater than 200)	–
O=C(O)CC[C@H]1CN(S(=O)(=O)c2cccc(C(F)(F)F)c2)c2cc(-c3cccc(F)c3Cl)ccc2O1 [Compound 2AH, (S)-3-(6-(2-chloro-3-fluoro-phenyl)-4-((3-(trifluoromethyl)-phenyl)sulfonyl)-3,4-dihydro-2H-benzo[b][1,4]oxazin-2-yl)propanoic acid]	< 0.5 µM	< 0.5 µM	–	*** (The symbol “***” indicates a value in the range of greater than 150 to 200)	**** (The symbol “****” indicates a value greater than 200)	–
O=C(O)CC[C@H]1CN(S(=O)(=O)c2cccc(C(F)(F)F)c2)c2cc(-c3cc(F)ccc3Cl)ccc2O1 [Compound 2AI, (S)-3-(6-(2-chloro-5-fluoro-phenyl)-4-((3-(trifluoromethyl)-phenyl)sulfonyl)-3,4-dihydro-2H-benzo[b][1,4]oxazin-2-yl)propanoic acid]	–	< 0.5 µM	–	** (The symbol “**” indicates a value in the range of greater than 90 to 150)	**** (The symbol “****” indicates a value greater than 200)	–
O=C(O)[C@]1(C[C@H]2CN(S(=O)(=O)c3cccc(C(F)(F)F)c3)c3cc(-c4cc(F)cc(OC(F)F)c4)ccc3O2)C[C@](O)(CO)C1 [Compound 87, (1r,3R)-1-(((S)-6-(3-(difluoromethoxy)-5-fluorophenyl)-4-((3-(trifluoromethyl)phenyl)sulfonyl)-3,4-dihydro-2H-benzo[b][1,4]oxazin-2-yl)methyl)-3-hydroxy-3-(hydroxymethyl)cyclobutane-1-carboxylic acid]	–	–	0.5 to 5 µM	–	–	** (The symbol “**” indicates a value in the range of greater than 90 to 150)

— US10611740B2, “Aryl dihydro-2H-benzo[b][1,4]oxazine sulfonamide and related compounds for use as agonists of RORγ and the treatment of disease” (Lycera Corporation, priority 2015, dated 2020)
